One experiment deals with T1, AuroraB (Homo sapiens, UniProt Q96GD4).
T1 construct: 20 μL of AuroraB FL H is for a final volume of 41 μL; His
The experiment is described as follows: AuroraB Homogeneous Time Resolved Fluorescent (HTRF) kinase assay. It is filed as biochemical. Particulars: average; read-out: AurB_IC50_IP (uM Avg). The procedure, abridged:
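Full-length His-tagged kinase phosphorylates biotinylated Histone H3 (0.1 μM final) with ATP in pH 7.5 HEPES containing MgCl, MnCl, DTT and BSA for about 90 min. EDTA-containing detection mix with SA-APC and Eu-anti-phosphoHistone H3 then equilibrated about 60 min; HTRF read with 320 nm excitation, emissions 615/655 nm.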

The target in a further experiment is T2, AuroraA-TPX2 (Homo sapiens, UniProt O14965).
T2 construct: 20 μL of AuroraA-TPX2 KD GST for a final volume of about 41 μL; GST
T2 sequence (O14965 133-383 limits assumed): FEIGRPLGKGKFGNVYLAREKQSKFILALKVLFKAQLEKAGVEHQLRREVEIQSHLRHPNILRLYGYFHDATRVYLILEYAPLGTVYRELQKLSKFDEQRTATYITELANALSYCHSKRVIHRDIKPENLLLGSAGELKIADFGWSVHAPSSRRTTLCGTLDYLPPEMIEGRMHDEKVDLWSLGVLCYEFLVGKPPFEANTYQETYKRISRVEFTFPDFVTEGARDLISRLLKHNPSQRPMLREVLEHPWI
T2 sequence (Q9ULW0 1-43 partner limits assumed): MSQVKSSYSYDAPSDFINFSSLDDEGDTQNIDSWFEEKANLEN
The experiment is described as follows: AuroraA-TPX2 Homogeneous Time Resolved Fluorescent (HTRF) kinase assay. Type of experiment: biochemical. Particulars: average; read-out: AurA_IC50_IP (uM Avg). The gist of the method: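 HTRF read-out (Eu 615 nm to APC 655 nm) of phosphorylated biotin-PLK, detected with 0.02 nM europium anti-phosphoPLK antibody and 0.0005 mg/mL SA-APC after overnight equilibration.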

Drawing on US8557816B2, “Aurora kinase modulators and method of use” (Amgen Inc., priority 2007, dated 2013), this text covers IC50 for 27 molecules.

T1 sequence (Q96GD4 whole entry): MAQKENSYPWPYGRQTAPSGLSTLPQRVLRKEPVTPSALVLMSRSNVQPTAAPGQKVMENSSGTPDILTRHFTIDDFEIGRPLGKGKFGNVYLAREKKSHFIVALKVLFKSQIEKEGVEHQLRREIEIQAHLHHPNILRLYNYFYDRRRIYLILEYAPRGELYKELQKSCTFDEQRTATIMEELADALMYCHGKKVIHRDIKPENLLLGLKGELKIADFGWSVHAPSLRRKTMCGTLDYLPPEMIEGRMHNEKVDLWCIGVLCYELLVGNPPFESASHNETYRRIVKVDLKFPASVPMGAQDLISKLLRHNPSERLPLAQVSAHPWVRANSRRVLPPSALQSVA

For the molecule `COc1cncc(-c2nnc(Nc3ccc(Oc4ccnc5cc(OC)cnc45)cc3)c3ccccc23)c1` [compound 129, N-(4-((7-(methyloxy)-1,5-naphthyridin-4-yl)oxy)phenyl)-4-(5-(methyloxy)-3-pyridinyl)-1-phthalazinamine], the figures for the IC50 on AuroraB and at AuroraA-TPX2 were 0.014 µM and 0.165 µM, respectively.
The matching figures for `COc1cnc2c(Oc3ccc(Nc4nnc(-c5ccncc5OC)c5ccccc45)cc3)ccnc2c1` [compound 130, N-(4-((7-(methyloxy)-1,5-naphthyridin-4-yl)oxy)phenyl)-4-(3-(methyloxy)-4-pyridinyl)-1-phthalazinamine]: 0.1 µM and 0.654 µM.
The corresponding values for `COc1cc2nccc(Oc3ccc(Nc4nnc(-c5cccc(OC)n5)c5ccccc45)cc3)c2cn1` [compound 131, N-(4-((7-(methyloxy)-1,6-naphthyridin-4-yl)oxy)phenyl)-4-(6-(methyloxy)-2-pyridinyl)-1-phthalazinamine] are 0.003 µM and 0.019 µM.
With `COc1cnc2c(Oc3ccc(Nc4nnc(-c5cccc(COC(C)=O)n5)c5ccccc45)cc3)ccnc2c1` [compound 132, (6-(4-((4-((7-(methyloxy)-1,5-naphthyridin-4-yl)oxy)phenyl)amino)-1-phthalazinyl)-2-pyridinyl)methyl acetate], the IC50 at AuroraB is 0.005 µM; at AuroraA-TPX2, 0.022 µM.
For the molecule `Brc1ccc2c(Oc3ccc(Nc4nnc(-c5ccccc5)c5ccccc45)cc3)ccnc2c1` [compound 133, N-(4-((7-bromo-4-quinolinyl)oxy)phenyl)-4-phenyl-1-phthalazinamine], the IC50 on AuroraB came to 0.028 µM; on AuroraA-TPX2, 0.494 µM.
The matching figures for `Brc1ccc2nccc(Oc3ccc(Nc4nnc(-c5ccccc5)c5ccccc45)cc3)c2c1` [compound 134, N-(4-((6-bromo-4-quinolinyl)oxy)phenyl)-4-phenyl-1-phthalazinamine]: 0.024 µM and 0.176 µM.
Consider `COc1cnc2c(Oc3ccc(Nc4nnc(-c5ccccc5)c5ccccc45)nc3)ccnc2c1` [compound 135, N-(5-((7-(methyloxy)-1,5-naphthyridin-4-yl)oxy)-2-pyridinyl)-4-phenyl-1-phthalazinamine], for which the figures for the IC50 at AuroraB and on AuroraA-TPX2 were 0.012 µM and 0.063 µM, respectively.
Regarding `COc1cnc2c(Oc3ccc(Nc4nnc(-c5ccc6c(c5)CC(C)(C)O6)c5ccccc45)cc3)ccnc2c1` [compound 136, 4-(2,2-dimethyl-2,3-dihydro-1-benzofuran-5-yl)-N-(4-((7-(methyloxy)-1,5-naphthyridin-4-yl)oxy)phenyl)-1-phthalazinamine], the IC50 at AuroraB is 0.016 µM; at AuroraA-TPX2, 0.037 µM.
`COc1cnc2c(Oc3ccc(Nc4nnc(-c5ccc(OC(C)C)cc5)c5ccccc45)cc3)ccnc2c1` [compound 137, 4-(4-((1-methylethyl)oxy)phenyl)-N-(4-((7-(methyloxy)-1,5-naphthyridin-4-yl)oxy)phenyl)-1-phthalazinamine]: the IC50 is 0.018 µM on AuroraB and 0.091 µM on AuroraA-TPX2.
The matching figures for `COc1cnc2c(Oc3ccc(Nc4nnc(-c5ccc(C)s5)c5ccccc45)cc3)ccnc2c1` [compound 138, N-(4-((7-(methyloxy)-1,5-naphthyridin-4-yl)oxy)phenyl)-4-(5-methyl-2-thienyl)-1-phthalazinamine]: 0.013 µM and 0.018 µM.
Consider `COc1cccc(-c2nnc(Nc3ccc(Oc4ccnc5cc(OC)cnc45)cc3)c3ccccc23)c1` [compound 139, N-(4-((7-(methyloxy)-1,5-naphthyridin-4-yl)oxy)phenyl)-4-(3-(methyloxy)phenyl)-1-phthalazinamine], for which the IC50 is 0.006 µM at AuroraB and 0.018 µM on AuroraA-TPX2.
In the case of `COc1cnc2c(Oc3ccc(Nc4nnc(-c5ccc(Cl)s5)c5ccccc45)cc3)ccnc2c1` [compound 140, 4-(5-chloro-2-thienyl)-N-(4-((7-(methyloxy)-1,5-naphthyridin-4-yl)oxy)phenyl)-1-phthalazinamine], the IC50 on AuroraB amounted to 0.008 µM; at AuroraA-TPX2, 0.022 µM.
The corresponding values for `COc1ccc(-c2nnc(Nc3ccc(Oc4ccnc5cc(C#N)ccc45)cc3)c3ccccc23)cc1` [compound 141, 4-((4-((4-(4-(methyloxy)phenyl)-1-phthalazinyl)amino)phenyl)oxy)-7-quinolinecarbonitrile] are 0.004 µM and 0.019 µM.
The matching figures for `COc1cnc2c(Oc3ccc(Nc4nnc(-c5ccc6sccc6c5)c5ccccc45)cc3)ccnc2c1` [compound 142, 4-(1-benzothien-5-yl)-N-(4-((7-(methyloxy)-1,5-naphthyridin-4-yl)oxy)phenyl)-1-phthalazinamine]: 0.007 µM and 0.008 µM.
Regarding `COc1cnc2c(Oc3ccc(Nc4nnc(-c5cc6ccccc6n5C)c5ccccc45)cc3)ccnc2c1` [compound 143, 4-(1-methyl-1H-indol-2-yl)-N-(4-((7-(methyloxy)-1,5-naphthyridin-4-yl)oxy)phenyl)-1-phthalazinamine], the IC50 worked out at 0.009 µM on AuroraB and 0.012 µM at AuroraA-TPX2.
The matching figures for `COc1cnc2c(Oc3ccc(Nc4ncc(-c5ccccc5)c5ccccc45)cc3)ccnc2c1` [compound 144, N-(4-((7-(methyloxy)-1,5-naphthyridin-4-yl)oxy)phenyl)-4-phenyl-1-isoquinolinamine]: 0.02 µM and 0.061 µM.
On to `COc1cc2nccc(Oc3ccc(Nc4ncc(-c5ccccc5)c5ccccc45)cc3)c2cn1` [compound 145, N-(4-((7-(methyloxy)-1,6-naphthyridin-4-yl)oxy)phenyl)-4-phenyl-1-isoquinolinamine], for which the figures for the IC50 on AuroraB and at AuroraA-TPX2 were 0.096 µM and 0.326 µM, respectively.
The corresponding values for `COc1cnc2c(Oc3ccc(Nc4nnc(-c5ccc(C(F)(F)F)cc5)c5ccccc45)cc3)ccnc2c1` [compound 146, N-(4-((7-(methyloxy)-1,5-naphthyridin-4-yl)oxy)phenyl)-4-(4-(trifluoromethyl)phenyl)-1-phthalazinamine] are 0.008 µM and 0.026 µM.
The corresponding values for `N#Cc1ccc2c(Oc3ccc(Nc4nnc(-c5ccc(C(F)(F)F)cc5)c5ccccc45)cc3)ccnc2c1` [compound 147, 4-((4-((4-(4-(trifluoromethyl)phenyl)-1-phthalazinyl)amino)phenyl)oxy)-7-quinolinecarbonitrile] are 0.011 µM and 0.025 µM.
The corresponding values for `CCc1cc(-c2ccccc2)nnc1Nc1ccc(Oc2ncnc3cc(OC)c(OC)cc23)cc1` [compound 148, N-(4-((6,7-bis(methyloxy)-4-quinazolinyl)oxy)phenyl)-4-ethyl-6-phenyl-3-pyridazinamine] are 0.016 µM and 0.062 µM.
As for `CCc1cc(-c2ccccc2)nnc1Nc1ccc(Oc2ccnc3cc(C#N)ccc23)cc1` [compound 149, 4-((4-((4-ethyl-6-phenyl-3-pyridazinyl)amino)phenyl)oxy)-7-quinolinecarbonitrile], the figures for the IC50 at AuroraB and at AuroraA-TPX2 were 0.014 µM and 0.146 µM, respectively.
The corresponding values for `COc1cc2nccc(Oc3ccc(Nc4nnc(-c5cccc(C)n5)c5ccccc45)cc3)c2cc1OC` [compound 150, N-(4-((6,7-bis(methyloxy)-4-quinolinyl)oxy)phenyl)-4-(6-methyl-2-pyridinyl)-1-phthalazinamine] are 0.007 µM and 0.014 µM.
In the case of `COc1cnc2c(Oc3ccc(Nc4nnc(N5CCCCC5)c5ccccc45)cc3)ccnc2c1` [compound 151, N-(4-((7-(methyloxy)-1,5-naphthyridin-4-yl)oxy)phenyl)-4-(1-piperidinyl)-1-phthalazinamine], the IC50 is 0.005 µM on AuroraB and 0.022 µM at AuroraA-TPX2.
The corresponding values for `COc1cnc2c(Oc3ccc(Nc4nnc(-c5cc(C)cs5)c5ccccc45)cc3)ccnc2c1` [compound 152, N-(4-((7-(methyloxy)-1,5-naphthyridin-4-yl)oxy)phenyl)-4-(4-methyl-2-thienyl)-1-phthalazinamine] are 0.006 µM and 0.006 µM.
The matching figures for `COc1cc2ncnc(Oc3ccc(Nc4nnc(-c5cc(C)cs5)c5ccccc45)cc3)c2cc1OC` [compound 153, N-(4-((6,7-bis(methyloxy)-4-quinazolinyl)oxy)phenyl)-4-(4-methyl-2-thienyl)-1-phthalazinamine]: 0.012 µM and 0.009 µM.
The corresponding values for `COc1cnc2c(Oc3ccc(Nc4nnc(-c5ccc(Cl)c(C#N)c5)c5ccccc45)cc3)ccnc2c1` [compound 154, 2-chloro-5-(4-((4-((7-(methyloxy)-1,5-naphthyridin-4-yl)oxy)phenyl)amino)-1-phthalazinyl)benzonitrile] are 0.004 µM and 0.018 µM.
With `COc1cnc2c(Oc3ccc(Nc4nnc(-c5ccc(C(C)C)cc5)c5ccccc45)cc3)ccnc2c1` [compound 155, 4-(4-(1-methylethyl)phenyl)-N-(4-((7-(methyloxy)-1,5-naphthyridin-4-yl)oxy)phenyl)-1-phthalazinamine], the IC50 on AuroraB was 0.011 µM; on AuroraA-TPX2, 0.029 µM.
